Experimental data as given in patent US7074888B1, “Mimotopes and anti-mimotopes of human platelet glycoprotein Ib/IX” (The Research Foundation of State University of New York, priority 1995, dated 2006).
Ends that are not written are not given here.

Columns and labels:
mab SZ-2 = assay: ELISA: phage binding to biotinylated SZ-2 inhibits binding of SZ-2 to immobilized glycocalicin; conditions: phage clone
Method: At this point, an ELISA assay can be used to evaluate individual clones, if the number of clones is high. In brief, phage having undergone two PEG precipitations, and subsequently adjusted for titer, can be incubated overnight with biotinylated mab, following which the mab-phage mixture can be added to wells of microtiter plates that have been previously coated with formalin-fixed platelets (or other suitable immobilized target recognized by the mab). Following a series of washing steps, avidin-peroxidase is added, the wells washed again, chromogenic substrate added, and the wells eventually read on an ELISA plate reader. The relative decrease in strength of signal in this assay provides guidance as to the most promising clones for further study. Consensus peptides identified in this manner can be chemically synthesized and characterized with respect to ability to bind original antibody. Peptides showing high binding affinity for the antibody can then be used as immunogens in mice and/or rabbits. […]

[1] = test system: platelets in citrated PRP; assay: Functional screening of candidate anti-mimotope bacteriophage clones, ristocetin-induced aggregation in citrated PRP; format: cell-based, human; conditions: 150 μL phage + 250 μL citrated PRP, 1 hr 22° C., 0.8 mg/mL ristocetin (FIG. 8)
Method: FIG. 8 illustrates the functional screening of candidate anti-mimotope bacteriophage clones. Following incubation of 150 μL of the indicated bacteriophage clones with 250 μL of citrated PRP for 1 hr at 22° C., aggregation was initiated by the addition of 0.8 mg/mL ristocetin under stirring conditions at 37° C.;
(§1) Citrated human platelet-rich plasma (PRP) was prepared by standard methods (Miller et al. 1983). For study of C-34 neutralization by mimotope peptide, 350 μL of PRP containing 150,000 platelets/μL was incubated for 10 min at 22° C. with phosphate-buffered saline (PBS), 20 μg/mL C-34 mab, or 20 μg/mL C-34 that had previously been incubated for 30 min at 22° C. with varying concentrations of peptides. The PRP was then brought to 37° C. and stirred at 1200 rpm in a Chrono-Log lumi-aggregometer (Chrono-Log Corporation, Havertown, Pa.). Aggregation was initiated by the addition of 1 mg/mL ristocetin (Helena Laboratories, Beaumont, Tex.). For screening of bacteriophage clones displaying potential anti-mimotope peptides, 150 μl of PEG/NaCl precipitated phage was incubated with 250 μl of citrated PRP for one hour at 22° C., transferred to the aggregometer, following which ristocetin was added at a final concentration of 0.8 mg/ml.
The mimotope decapeptide itself was then used as a probe to search for “anti-mimotope” peptides. […]

formalin-fixed platelets = format: cell-based, human
Method: as §1
Further studies were undertaken with chemically synthesized peptide having SEQ ID NO:94: […]. This decapeptide was able to inhibit ristocetin-induced aggregation fully, with an IC50 occurring between 200–400 μg/mL (FIG. 9). […] In order to approximate more closely the native structure, peptides with an (Arg→Lys) substitution at position 7 were then studied. […] Whereas the […] Finally, both the wild-type GPIb alpha 228–237 peptide (SEQ ID NO:108) containing Gly at residue 233 and the PT-vWD variant with Val replacing Gly at this position (SEQ ID NO:107) were synthesized. […] Lyophilized peptides were reconstituted in PBS, pH 6.0 and 150 μL of varying dilutions incubated for 2–4 hr at 22° C. with 250 μL of formalin-fixed platelets ([…]), prior to aggregometry in which the addition of 1 U/mL purified vWF was followed by the addition of 0.9 mg/mL ristocetin.

[2] = biological target: human platelet glycoprotein Ib/IX complex (human, UniProt P07359 17-652; P13224 26-206; P14770 17-177); assay: cell-based or functional assay
Chain of human platelet glycoprotein Ib/IX complex (P07359 17-652, chain 1 of 3): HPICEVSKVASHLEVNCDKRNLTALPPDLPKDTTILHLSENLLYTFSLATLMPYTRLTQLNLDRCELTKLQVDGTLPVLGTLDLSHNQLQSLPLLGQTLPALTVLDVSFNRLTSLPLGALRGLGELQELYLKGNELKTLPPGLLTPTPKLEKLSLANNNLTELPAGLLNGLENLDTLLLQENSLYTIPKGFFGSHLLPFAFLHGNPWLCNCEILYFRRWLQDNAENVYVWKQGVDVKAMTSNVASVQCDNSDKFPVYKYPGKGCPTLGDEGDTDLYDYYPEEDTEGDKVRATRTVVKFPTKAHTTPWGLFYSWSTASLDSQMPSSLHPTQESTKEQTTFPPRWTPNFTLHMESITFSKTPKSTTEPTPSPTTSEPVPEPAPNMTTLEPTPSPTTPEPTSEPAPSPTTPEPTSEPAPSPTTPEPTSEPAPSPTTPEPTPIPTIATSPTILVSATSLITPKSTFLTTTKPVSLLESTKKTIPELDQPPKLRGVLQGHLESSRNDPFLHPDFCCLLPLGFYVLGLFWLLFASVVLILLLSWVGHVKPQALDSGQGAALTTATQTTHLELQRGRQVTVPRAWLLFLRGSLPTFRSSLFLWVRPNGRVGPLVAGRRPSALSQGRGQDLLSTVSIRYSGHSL
Chain of human platelet glycoprotein Ib/IX complex (P13224 26-206, chain 2 of 3): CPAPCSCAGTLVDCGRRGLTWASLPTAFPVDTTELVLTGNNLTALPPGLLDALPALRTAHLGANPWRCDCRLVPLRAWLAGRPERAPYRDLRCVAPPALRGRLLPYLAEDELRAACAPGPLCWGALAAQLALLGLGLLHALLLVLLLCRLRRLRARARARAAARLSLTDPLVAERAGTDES
Chain of human platelet glycoprotein Ib/IX complex (P14770 17-177, chain 3 of 3): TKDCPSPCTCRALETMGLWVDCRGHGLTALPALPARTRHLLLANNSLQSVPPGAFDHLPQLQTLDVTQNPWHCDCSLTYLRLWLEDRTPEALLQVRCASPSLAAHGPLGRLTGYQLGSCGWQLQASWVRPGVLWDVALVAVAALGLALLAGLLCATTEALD

WHWRSSWKSG [SEQ ID NO:83]
neutralization of SZ-2 binding to immobilized glycocalicin (mab SZ-2): fully neutralizing

RHVAWWRQGV [SEQ ID NO:94, RHVAWWRQGV]
inhibitory activity of bacteriophage clone in functional platelet assay [1]: inhibitory activity above background level
IC50 for inhibition of ristocetin-induced aggregation (formalin-fixed platelets): 200 to 400 µg/mL
inhibition of ristocetin-induced aggregation (extent, in words) (formalin-fixed platelets; formalin-fixed platelets, 1 U/mL purified vWF, 0.9 mg/mL ristocetin): fully

RHVAWWRQGV [chemically synthesized peptide having SEQ ID NO:94]
IC50 of inhibition of ristocetin-induced aggregation of formalin-fixed platelets with vWF [2]: 200 to 400 µg/mL
